This note sets out measurements from patent US9708328B2, “Pteridines useful as HCV inhibitors and methods for the preparation thereof” (Janssen Sciences Ireland UC, priority 2005, dated 2017).

What is called EC50 is the concentration giving half of the maximal effect. Low readings indicate greater potency, high ones weaker potency. As usually defined, the Tmax is the time at which the peak concentration occurs.

Like-named read-outs stand apart in the source and are kept apart here.

For data set [1], the system named is HCV replicon (HCV type 1b) in Huh-7 luc/neo cells. Put plainly: Stable replicon cell reporter assay (Huh-Luc, luciferase readout). The format is cell-based. To be noted: Hepatitis C virus, Huh-7, 72 h, three days incubation, luciferase activity. The text has this:
Stable Replicon Cell Reporter Assays:
The compounds of the present invention are examined for activity in the inhibition of HCV RNA replication in a cellular assay. […] The cellular assay is based on a bicistronic expression construct, as described by Lohmann et al. (1999) Science vol. 285 pp. 110-113 with modifications described by Krieger et al. (2001) Journal of Virology 75: 4614-4624, in a multi-target screening strategy. In essence, the method is as follows.
The assay utilizes the stably transfected cell line Huh-7 luc/neo (hereafter referred to as Huh-Luc). This cell line harbors an RNA encoding a bicistronic expression construct comprising the wild type NS3-NS5B regions of HCV type 1b translated from an Internal Ribosome Entry Site (IRES) from encephalomyocarditis virus (EMCV), preceded by a reporter portion (FfL-luciferase), and a selectable marker portion (neo^R, neomycine phosphotransferase). The construct is bordered by 5′ and 3′ NTRs (non-translated regions) from HCV type 1b. Continued culture of the replicon cells in the presence of G418 (neo^R) is dependent on the replication of the HCV RNA. The stably transfected replicon cells that express HCV RNA, which replicates autonomously and to high levels, encoding inter alia luciferase, are used for screening the antiviral compounds.
Cellular Assay Experimental Method:
The replicon cells are plated in 384 well plates in the presence of the test and control compounds which are added in various concentrations. Following an incubation of three days, HCV replication is measured by assaying luciferase activity (using standard luciferase assay substrates and reagents and a Perkin Elmer ViewLux™ ultraHTS microplate imager). Replicon cells in the control cultures have high luciferase expression in the absence of any inhibitor. The inhibitory activity of the compound on luciferase activity is monitored on the Huh-Luc cells, enabling a dose-response curve for each test compound.
In general terms: Replicon systems follow genome replication, usually without infectious particles.

The nature of data set [2]: Pharmacokinetic profile after single oral administration: plasma, heart and liver levels. The format is in vivo, male Swiss SPF (CD1)-mice. On the procedure: Compound nr. 21 was dissolved in a 10% hydroxypropyl-β-cyclodextrin (HP-β-CD) solution at a final concentration of 1 mg base-eq./ml, .pH 4.36.
Three animals were administered orally the solution of compound nr. 21 to obtain a dose of 20 mg base-eq./kg. Blood samples were taken at 30 min, 1, 2, 4, 8 and 24 h after oral dose administration. Plasma was obtained following centrifugation at 4° C. for 10 minutes at approximately 1900×g.
From each orally dosed animal individual samples of heart and liver were dissected and weighed. Tissue samples were homogenized in demineralized water.
Plasma and tissue samples were analysed for compound nr. 21, using a qualified research LC-MS/MS method.
A limited pharmacokinetic analysis was performed using WinNonlin™ Professional (Version 4.0.1). A non-compartmental analysis using the lin/log trapezoidal rule with lin/log interpolation was used for all data. The variability between animals is indicated by the standard deviation (st dev).

For `Cc1ccccc1Nc1nc(-c2cc(Br)ccc2F)nc2nccnc12` [Compound 9, 2-(5-bromo-2-fluorophenyl)-4-(2-tolylamino)pteridine], in data set [1], it took 11000 nM to reach a half-maximal effect (EC50).
In data set [1], `CC(C)(C)CCN(c1ccncc1)c1nc(-c2cc(Br)ccc2F)nc2nccnc12` [Compound 4, 2-(5-bromo-2-fluorophenyl)-4-[(3,3-dimethylbutyl)(4-pyridyl)amino]pteridine] yielded an EC50 of 480 nM. Compared with the last compound, the EC50 is about 23-fold lower.
`Fc1ccc(Br)cc1-c1nc(Nc2ccccc2)c2nccnc2n1` [Compound 8, 2-(5-bromo-2-fluorophenyl)-4-(phenylamino)pteridine] showed an EC50 in data set [1] of over 32000 nM.
On the same count and under the same terms, in the case of `Cc1cnccc1Nc1nc(-c2cc(Br)ccc2F)nc2nccnc12` [Compound 7, 2-(5-bromo-2-fluorophenyl)-4-(3-methyl-4-pyridylamino)pteridine] it was 950 nM; in that of `CN(c1ccccc1)c1nc(-c2cc(Br)ccc2F)nc2nccnc12` [Compound 10, 2-(5-bromo-2-fluorophenyl)-4-[(methyl)(phenyl)amino]pteridine], 11000 nM; in that of `Fc1ccc(Br)cc1-c1nc(Nc2ccncc2)c2nccnc2n1` [Compound 1, 2-(5-bromo-2-fluorophenyl)-4-(4-pyridylamino)pteridine], 352 nM.
For the compound `Cc1cnccc1Nc1nc(-c2cc(Br)ccc2N2CCCC2)nc2nccnc12` [Compound 6, 2-(5-Bromo-2-pyrrolidin-1-ylphenyl)-4-(3-methyl-4-pyridylamino)pteridine], a half-maximal response in data set [1] (EC50) required 18000 nM.
For `Clc1cccc(-c2nc(Nc3ccncc3)c3nccnc3n2)c1` [Compound 18, 2-(3-chlorophenyl)-4-(4-pyridylamino)pteridine], the EC50 in data set [1] turned out to be 1500 nM.
With `CCc1cnccc1Nc1nc(-c2cc(Cl)ccc2F)nc2nccnc12` [Compound 23, 2-(5-chloro-2-fluorophenyl)-4-(3-ethyl-4-pyridylamino)pteridine], it took 520 nM to reach a half-maximal effect in data set [1] (EC50).
`COC(=O)c1cnccc1Nc1nc(-c2cc(Br)ccc2F)nc2nccnc12` [Compound 13, 4-[[2-(5-Bromo-2-fluorophenyl)pteridin-4-yl]amino]nicotinic acid methyl ester] returned an EC50 in data set [1] of 4900 nM. Compared with the last compound, the EC50 is about 9.4-fold higher.
In the case of `Fc1ccc(Br)cc1-c1nc(N(CCc2ccccc2)c2ccncc2)c2nccnc2n1` [Compound 22, 2-(5-bromo-2-fluorophenyl)-4-[(phenethyl)(4-pyridyl)amino]-pteridine], a half-maximal response in data set [1] (EC50) required 1960 nM.
`Fc1ccc(Br)cc1-c1nc(Nc2ccc(N3CCOCC3)cc2)c2nccnc2n1` [Compound 14, 2-(5-bromo-2-fluorophenyl)-4-(4-morpholinophenylamino)pteridine] came in with a 50% effective concentration (EC50) in data set [1] of 8700 nM.
Consider `Fc1ccc(Br)cc1-c1nc(N2CCN(c3ccccn3)CC2)c2nccnc2n1` [Compound 12, 2-(5-bromo-2-fluorophenyl)-4-[4-(2-pyridyl)piperazin-1-yl]pteridine], for which the EC50 in data set [1] is over 32000 nM.
Turning to `CCCCN(c1ccncc1)c1nc(-c2cc(Br)ccc2F)nc2nccnc12` [Compound 3, 4-[(butyl)(4-pyridyl)amino]-2-(5-bromo-2-fluorophenyl)pteridine], a half-maximal effect in data set [1] (EC50) was put at 2200 nM.
Compound `FC(F)(F)c1cccc(-c2nc(Nc3ccncc3)c3nccnc3n2)c1` [Compound 26, 2-(3-trifluoromethylphenyl)-4-(4-pyridylamino)pteridine] had an EC50 in data set [1] of 2000 nM.
For `CN(c1ccncc1)c1nc(-c2cc(Br)ccc2F)nc2nccnc12` [Compound 2, 2-(5-bromo-2-fluorophenyl)-4-[(methyl)(4-pyridyl)amino]pteridine], the EC50 in data set [1] stood at 3650 nM.
Still for that read-out and setting: under `Cc1cc(Nc2nc(-c3cc(Br)ccc3F)nc3nccnc23)ccn1` [Compound 15, 2-(5-bromo-2-fluorophenyl)-4-(2-methyl-4-pyridylamino)pteridine] stands 3560 nM.
Consider `O=C(NCCCN1CCCC1=O)c1cnccc1Nc1nc(-c2cc(Br)ccc2F)nc2nccnc12` [Compound 21, 4-[[2-(5-bromo-2-fluorophenyl)pteridin-4-yl]amino]-N-[3-(2-oxopyrrolidin-1-yl)propyl]nicotinamide], for which the AUC0-inf was 1262 ng·h/mL in data set [2] (heart, 20 mg base-eq./kg oral); 7973 ng·h/mL in data set [2] (liver, 20 mg base-eq./kg oral); 332 ng·h/mL in data set [2] (plasma, 20 mg base-eq./kg oral). Besides, the “AUC(0-8 h)” value in data set [2] (heart, 20 mg base-eq./kg oral) amounted to 1119 ng·h/mL; in data set [2] (liver, 20 mg base-eq./kg oral), 6965 ng·h/mL; in data set [2] (plasma, 20 mg base-eq./kg oral), 309 ng·h/mL. Moreover, the Tmax in data set [2] (heart, 20 mg base-eq./kg oral) was 0.5 h; in data set [2] (liver, 20 mg base-eq./kg oral) it was 0.5 h; in data set [2] (plasma, 20 mg base-eq./kg oral), 0.5 h. Further, the “t1/2 (2-8 h)” value came out at 3.4 h in data set [2] (heart, 20 mg base-eq./kg oral); 3.5 h in data set [2] (liver, 20 mg base-eq./kg oral); 2.9 h in data set [2] (plasma, 20 mg base-eq./kg oral). Further, the Cmax in data set [2] (heart, 20 mg base-eq./kg oral (Table 4)) turned out to be 678 ng/mL; in data set [2] (liver, 20 mg base-eq./kg oral (Table 4)), 4057 ng/mL; in data set [2] (male, Swiss SPF (CD1), mouse, 20 mg/kg, heart, 0.5 h post dose, 20 mg base-eq./kg oral, read-out: Mean maximum tissue concentration (Cmax)), 678 ng/g; in data set [2] (male, Swiss SPF (CD1), mouse, 20 mg/kg, liver, 0.5 h post dose, 20 mg base-eq./kg oral, read-out: Mean maximum tissue concentration (Cmax)), 4060 ng/g; in data set [2] (plasma, 20 mg base-eq./kg oral) it was 220 ng/mL. Moreover, in data set [2] (heart, time 24 h, 20 mg base-eq./kg oral, n=3, LLOQ between 5.00 and 13.16 ng/g), the “Mean tissue level, heart” value is “BQL^1)”. In addition, the “Mean tissue level, liver” value in data set [2] (liver, time 24 h, 20 mg base-eq./kg oral, n=3, LLOQ between 5.00 and 13.16 ng/g) is on record as “BQL^1)”. In data set [2] (male, Swiss SPF (CD1), mouse, plasma, time 0.5 h, 20 mg base-eq./kg oral, n=3, read-out: Mean plasma level), the concentration at 0.5 h amounted to 220 ng/mL. Besides, the concentration at 1 h in data set [2] (male, Swiss SPF (CD1), mouse, plasma, time 1 h, 20 mg base-eq./kg oral, n=3, read-out: Mean plasma level) was 166 ng/mL. Moreover, the concentration at 2 h in data set [2] (male, Swiss SPF (CD1), mouse, plasma, time 2 h, 20 mg base-eq./kg oral, n=3, read-out: Mean plasma level) came out at 21.7 ng/mL. Moreover, the concentration at 4 h in data set [2] (male, Swiss SPF (CD1), mouse, plasma, time 4 h, 20 mg base-eq./kg oral, n=3, read-out: Mean plasma level) was determined as 20.3 ng/mL. The concentration at 8 h in data set [2] (male, Swiss SPF (CD1), mouse, plasma, time 8 h, 20 mg base-eq./kg oral, n=3, read-out: Mean plasma level) stood at 5.52 ng/mL. Also, the Mean plasma level entry in data set [2] (plasma, time 24 h, 20 mg base-eq./kg oral, n=3, LLOQ 0.500 ng/ml) was “BQL^1)”. The same compound returned an EC50 in data set [1] of 58 nM.
As to `Fc1ccc(Br)cc1-c1nc(N(Cc2ccccc2)c2ccncc2)c2nccnc2n1` [Compound 5, 4-[(benzyl)(4-pyridyl)amino]-2-(5-bromo-2-fluorophenyl)pteridine], the EC50 in data set [1] is 990 nM.
`Fc1ccc(Cl)cc1-c1nc(Nc2ccncc2)c2nccnc2n1` [Compound 24, 2-(5-chloro-2-fluorophenyl)-4-(4-pyridylamino)pteridine] registered a concentration for a half-maximal effect (EC50) in data set [1] of 780 nM.
The compound `Cc1cccc(-c2nc(Nc3ccncc3C)c3nccnc3n2)n1` [Compound 19, 2-(2-methyl-6-pyridyl)-4-[(3-methyl-4-pyridyl)amino]pteridine] showed an EC50 in data set [1] of 12000 nM.
In data set [1], `Fc1cccc(-c2nc(Nc3ccncc3)c3nccnc3n2)c1` [Compound 27, 2-(3-fluorophenyl)-4-(4-pyridylamino)pteridine] gave an EC50 of 3000 nM.
Take `Cc1cnccc1Nc1nc(-c2cc(Cl)ccc2F)nc2nccnc12` [Compound 25, 2-(5-chloro-2-fluorophenyl)-4-(3-methyl-4-pyridylamino)pteridine]: the midpoint of the response in data set [1], the EC50, lay at 480 nM. Against the preceding compound, the EC50 is about 6.2-fold lower.
For `OCCNc1nc(-c2cc(Br)ccc2F)nc2nccnc12` [Compound 11, 2-(5-bromo-2-fluorophenyl)-4-(2-hydroxyethylamino)pteridine], the EC50 in data set [1] is over 32000 nM.
